According to PubChem BioAssay AID179 (DTP/NCI, 2004):
The source made the active and inactive calls.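 The calls were made as follows: active = compounds giving half or more protection of infected cells from virus-caused growth loss, again on retest; inactive = the rest.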

Tested on: CEM cells HIV-1 protection, formazan growth assay
Experiment: NCI AIDS Antiviral Assay
Details: for IC50: measured here: growth of uninfected CEM cells
Outline: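 Human CEM cells, uninfected and HIV-1-infected, received five drug concentrations, and growth was read by soluble formazan assay. Compounds giving at least 50% protection were retested; reproducible 100% protection defined confirmed active.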

| Structure (SMILES) | outcome | EC50 | IC50 |
| --- | --- | --- | --- |
| O=C(c1ccc(O)cc1O)C1C(c2ccc(O)cc2)OC(c2ccc(O)cc2)C1C(=O)c1ccc(O)cc1O (configuration not stated) | inactive |  |  |
| O=C(c1ccccc1)N1OC2C=CC1CC2 (configuration not stated) |  | > 1150 µM | > 1150 µM |
| COc1ccc2c(c1)OC[C@]1(C)c3cc(O)c(OCc4ccccc4)cc3O[C@H]21 | inactive |  |  |
| O=C(O)c1cc2c3c(c1)[C@H]1C=CC[C@H]1CN3CC1CC=CC21 (some centres not stated) | inactive |  |  |
| CCN(CCO)c1ccc(N=O)cc1 |  | > 200 µM | 11.5 µM |
| CNC(=O)OCc1cc(C(=O)NCCCNCCCNC(=O)c2ccc([N+](=O)[O-])c(COC(=O)NC)c2)ccc1[N+](=O)[O-] | inactive |  |  |
| CC1(C)OC(COP2OCCO2)[C@H](COP2OCCO2)O1 (some centres not stated) |  | > 200 µM | > 200 µM |
| Nc1cc(N)c(N=Nc2ccc(CCc3ccc(N=Nc4c(N)cc(N)cc4C(=O)O)cc3S(=O)(=O)O)c(S(=O)(=O)O)c2)c(C(=O)O)c1 |  | > 1020 µM | 174 µM |
| N#Cc1c(-c2ccccc2)[nH]c(=O)n(C2OC(CO)C(O)C(O)C2O)c1=O (configuration not stated) | inactive | > 200 µM | > 200 µM |
| C1COCCOP2(N3CC3)=NP(N3CC3)(=NP(N3CC3)(N3CC3)=N2)OCCOCCO1 (configuration not stated) |  | > 200 µM | 21.4 µM |
| Cc1cc(=O)n(-c2ccccc2)c(=S)n1-c1nc2ccccc2[nH]1 |  | > 107 µM | 63.1 µM |
| O=C(CCCC[n+]1ccccc1)Sc1ccccc1C(=O)NCc1ccc2c(c1)OCO2 |  | > 200 µM | 3.02 µM |
| CCOCCN(Cc1ccc(CN(CCOCC)C(=O)C(Cl)Cl)cc1)C(=O)C(Cl)Cl |  | > 200 µM | > 200 µM |
| CC(=O)OCC(OC(C)=O)C(OC(C)=O)C(OC(C)=O)C(=O)CNn1c(-c2ccccc2)nc2ccc(Br)cc2c1=O (configuration not stated) | inactive |  |  |
| COC1(OC)C2(Cl)C(Cl)=C(Cl)C1(Cl)C1c3ccc(C(C)=O)c4cccc(c34)C12 (configuration not stated) | inactive |  |  |
| Cn1cnnc1SC(F)(F)c1nc2ccccc2o1 |  | 191 µM | > 200 µM |
| N#Cc1nn(-c2ccc(Cl)cc2)c(N)c2c(=N)n3nc(-c4ccccc4)cc3nc12 |  | > 9.12 µM | > 9.12 µM |
| Cc1ccccc1C1=[N+]([O-])c2ccccc2C1=O | inactive |  |  |
| O=C(O)CCCn1nnc2c(=O)[nH][nH]c(=O)c21 |  | > 200 µM | > 200 µM |
| CCOP(=O)(OCC)/C(C#N)=C/c1ncc[nH]1 |  | > 200 µM | > 200 µM |
| CCn1c(CSc2nc(-c3ccccc3)c(-c3ccccc3)[nH]2)n[nH]c1=S |  | > 91.2 µM | 52.5 µM |
| C=C1C(=O)C23[C@H](O)C1CC[C@H]2[C@]12COC3(O)[C@@H](O)[C@@H]1C(C)(C)CC[C@@H]2O |  | > 347 µM | 1.95 µM |

| Structure (SMILES) | outcome | EC50 | IC50 |
| --- | --- | --- | --- |
| CCOc1ccc(C(=O)Nc2ccc(C3=NCCN3)cc2)cc1C(=O)Nc1ccc(C2=NCCN2)cc1 |  | 2.95 µM | 117 µM |
| O=C1CCCN1CC#CCN1C[C@@H]2C3CCC(C3)[C@@H]2C1 |  | > 200 µM | 170 µM |
| Clc1ccc(Nc2nnc(CNc3ccc(-c4nnc(Nc5ccc(Cl)cc5)s4)cc3)s2)cc1 |  | > 200 µM | 13.2 µM |
| CC(=O)N1c2cc(N=NN(C)C)ccc2NC(=O)CC1C (configuration not stated) |  | > 200 µM | > 200 µM |
| CCCOc1cc2c(c3oc(=O)cc(CCC)c13)C(=O)[C@H](C)[C@@H](C)O2 |  | > 200 µM | 5.5 µM |
| CS(=O)(=O)c1nc(Cl)c(Cl)c(C#N)c1Cl |  | > 200 µM | 0.457 µM |
| NC/C(=C\C(=O)O)c1ccc(Cl)cc1 | inactive |  |  |
| Cn1ncc(=O)[nH]c1=S |  | > 200 µM | > 200 µM |
| CCOP(=S)(N/N=C1\CC2CCC1C2)OCC (configuration not stated) |  | > 200 µM | > 200 µM |
| COc1cccc2c1OC1Sc3ccccc3-c3nn(-c4ccccc4)c-2c31 (configuration not stated) |  | > 7.08 µM | > 7.08 µM |
| [N-]=[N+]=NC1=CC(=O)c2cccc3cccc1c23 |  | > 75.9 µM | 6.92 µM |
| Cc1ccc(SSc2ccc(C)c(Cl)c2)cc1Cl |  | > 200 µM | > 200 µM |
| CCC(C)N(CCN)C(=O)c1cc2ccccc2c(-c2ccccc2Cl)n1 (configuration not stated) | inactive |  |  |
| CC(C)CCC[C@@H](C)C1CCC2[C@@H]3CC=C4C[C@@H](OC(=O)CCC(=O)O)CC[C@]4(C)C3CC[C@@]21C (some centres not stated) | inactive |  |  |
| C=C1CCC([N+](=O)[O-])[C@](C)(N=O)CC[C@@H]2C1CC2(C)C (some centres not stated) |  | > 200 µM | 17 µM |
| CC(C)(c1ccccc1)c1ccc(Oc2ccc3c(c2)-c2nc-3nc3[nH]c(nc4nc(nc5[nH]c(n2)c2ccc(Oc6ccc(C(C)(C)c7ccccc7)cc6)cc52)-c2cc(Oc5ccc(C(C)(C)c6ccccc6)cc5)ccc2-4)c2ccc(Oc4ccc(C(C)(C)c5ccccc5)cc4)cc32)cc1 |  | > 2.63 µM | > 2.63 µM |
| COC(=O)c1cccc(C)c1C1CN=NC12Cc1cc(C)cc(C)c1C2=O (configuration not stated) |  | > 200 µM | 12.3 µM |
| O=C(CC1(O)C(=O)Nc2ccc(Br)cc21)c1ccc(Cl)cc1 (configuration not stated) |  | > 93.3 µM | > 93.3 µM |
| O=C(NC/C=C/Br)NC1CCNc2ccccc21 (configuration not stated) |  | > 200 µM | 14.1 µM |
| O=C1C=C(Nc2ccccc2C(=O)CC(=O)C(=O)Nc2ccc(Cl)cc2)c2ccccc2C1=O |  | > 39.8 µM | 2.19 µM |
| COc1ccc(C2C3C(=O)C=CC(=O)C3[C@@H]2C)cc1OC (some centres not stated) |  | > 174 µM | 13.2 µM |
| O=C1C(Cl)C(c2ccccc2O)N1n1cnc2ccccc2c1=O (configuration not stated) |  | > 14.5 µM | > 14.5 µM |

| Structure (SMILES) | outcome | EC50 | IC50 |
| --- | --- | --- | --- |
| CSC(=S)N/N=C/c1nccc2ccccc12 | inactive |  |  |
| CCCCCCCCCCCCC(N=[N+]=[N-])C(=O)OCC1OC(n2cc(C)c(=O)[nH]c2=O)CC1O (configuration not stated) |  | > 20.4 µM | > 20.4 µM |
| N#C[C@@]12CCCC(=O)[C@@H]1[C@H]1CCC[C@H]12 |  | > 200 µM | 77.6 µM |
| CC(C)C(=O)OCC1CCCN2CCCCC12 (configuration not stated) |  | > 200 µM | > 100 µM |
| C=C(C)c1nc(Oc2ccccc2)nc(Oc2ccccc2)n1 |  | > 200 µM | 3.55 µM |
| CC1(C)COC2=C(C1)C(=O)c1ccccc1C2=O |  | > 200 µM | 0.708 µM |
| N#CC(NCCc1ccccc1)c1ccc(OCCCCCCCCCCOc2ccc(C(C#N)NCCc3ccccc3)cc2)cc1 (configuration not stated) |  | > 50.1 µM | 22.9 µM |
| Cc1ccc(C)c2c1CC(Cc1ccccc1C(=O)O)C2=O (configuration not stated) |  | > 200 µM | 158 µM |
| CCC1(CCC#N)CCc2[nH]c3ccccc3c2C1=O (configuration not stated) |  | > 200 µM | 174 µM |
| O=c1c2ccccc2nc(-c2ccccc2)n1NC1OC(CO)C(O)C(O)C1O (configuration not stated) | inactive |  |  |
| CC(C)C(O)C(=O)C(O)C(C)C (configuration not stated) |  | > 1020 µM | > 1020 µM |
| COC(=O)/C(=N\NC(=S)NN)C(C(=O)C(=O)Nc1ccccc1C(N)=O)c1nc2ccccc2[nH]c1=O (configuration not stated) |  | > 347 µM | > 347 µM |
| CC1(C)COC2(OC1)C1=NS(=O)(=O)CC13CCC2C3(C)C (configuration not stated) |  | > 57.5 µM | > 57.5 µM |
| CCN1CCCn2c(=S)[nH]c3cc(Br)cc1c32 |  | 57.5 µM | 97.7 µM |
| O=C1CSC2=NCC3(NN12)c1ccccc1-c1ccccc13 |  | > 200 µM | > 100 µM |
| C=C(C)Cn1c(=O)c2c(ncn2C)n(C)c1=O |  | > 200 µM | > 200 µM |
| CCc1n[nH]c(=O)n1CC |  | > 200 µM | > 200 µM |
| C#CC(C)(C)Oc1cc(O)c2c(=O)c3ccccc3n(C)c2c1 |  | > 23.4 µM | > 23.4 µM |
| Clc1c2ccccc2[se][n+]1-c1ccccc1 |  | > 21.9 µM | 11.2 µM |
| COc1ccc(CCN2CCOCC2)cc1 |  | > 200 µM | > 200 µM |
| CN(C)c1ccc(/C=C/c2ccnc3c(O)cccc23)cc1 |  | > 18.2 µM | 1.05 µM |
| O=C(OCC12CC3CC(CC(C3)C1)C2)c1ccc(NCc2cc(O)ccc2O)cc1 |  | > 2 µM | 1.78 µM |

| Structure (SMILES) | outcome | EC50 | IC50 |
| --- | --- | --- | --- |
| CC(=O)CC(=O)CCC(=O)Nc1cccc(C(F)(F)F)c1 | inactive |  |  |
| Nc1nc(NCC2(CO)CC(CCc3ccccc3)C2)cc(=O)[nH]1 (configuration not stated) |  | > 200 µM | 64.6 µM |
| O=C1[C@@H]2C(c3ccccc3[N+](=O)[O-])=NO[C@@H]2C(=O)N1c1ccc(Cc2ccc(N3C(=O)[C@H]4C(c5ccccc5[N+](=O)[O-])=NO[C@H]4C3=O)cc2)cc1 |  | > 20 µM | > 20 µM |
| COc1cc2c(cc1OC)C1Cc3cc(OC)c(OC)cc3N1CC2 (configuration not stated) |  | > 29.5 µM | 9.12 µM |
| O=C1CCC(N2C(=O)C3C4CCC(O4)C3C2=O)C(=O)N1 (configuration not stated) |  | > 200 µM | > 200 µM |
| NC1=NN(c2ccccc2)C(=O)C1/C(=N\NC(=O)c1cc2ccccc2cc1O)C(=O)Nc1ccc(Cl)cc1 (configuration not stated) |  | > 6.92 µM | > 6.92 µM |
| COc1cc2ccc(CC#N)cc2cc1OC | inactive |  |  |
| COC1=C2C[C@](OC)(C#CC=CC#CC2O)CC1(C)C (some centres not stated) |  | > 200 µM | 97.7 µM |
| CCCCCCNC(=O)/C(=C\c1ccc(Cl)cc1Cl)NC(=O)c1ccccc1 |  | > 200 µM | > 200 µM |
| Cc1nc(-n2nc(-c3ccccc3)cc2-c2ccccc2)sc1C(/C=C/c1ccc([N+](=O)[O-])cc1)=N/NC(N)=S |  | > 33.1 µM | 26.9 µM |
| COc1ccc(NCC(=O)Nn2c(-c3ccccc3)nc3ccccc3c2=O)cc1 |  | > 200 µM | 17.8 µM |
| CC(=O)NNc1nc(C)c(C(=O)NNC(=O)C(=O)Nc2ccc(C)c(C)c2)s1 |  | > 170 µM | 31.6 µM |
| Cc1ccc2nc(-c3ccc4nc(-c5ccc(N=Nc6ccc(-c7nc8ccc(-c9nc%10ccc(C)c(S(=O)(=O)O)c%10s9)cc8s7)cc6)cc5)sc4c3)sc2c1S(=O)(=O)O |  | 19.5 µM | > 200 µM |
| Cn1ccc(C(=O)NCCN(CCNC(=O)c2ccn(C)c(=O)c2O)CCNC(=O)c2ccn(C)c(=O)c2O)c(O)c1=O |  | > 200 µM | > 200 µM |
| CCOC(=O)/C(=N\O)C1=CSC2=NNC(C)(C)N12 |  | > 200 µM | 115 µM |
| CC(C)CC(NC(=O)OC(C)(C)C)C(=O)Nc1ccc(Nc2nc(F)nc(-c3c4ccccc4cn3C)n2)cc1 (configuration not stated) |  | > 18.2 µM | 16.6 µM |
| Cc1ccc(NC(=O)CCc2n[nH]c(=S)o2)cc1 |  | > 5.5 µM | > 5.5 µM |
| O=C1/C(=C/c2ccccc2)CN(C(=O)CCN2CCOCC2)C/C1=C\c1ccccc1 |  | > 79.4 µM | 0.525 µM |
| O=C1c2scc(-c3ccc(Cl)cc3)c2-n2cccc21 |  | > 200 µM | > 200 µM |
